Structures are written as SMILES.

The assay concerns PANK2−/− IMR32 cells. Kind of assay: Coenzyme A assay in PANK2 silenced cells (LC-MS quantification of free CoA). Type of assay: cell-based, human. As to conditions: fold increase in CoA levels relative to controls, treated twice, 24 h + 24 h; for PANK2−/− CoA Fold increase: compound concentration 10 uM; for fold induction at 1 µM: compound concentration 1 uM. The protocol: A human neuroblastoma IMR32 cell line (ATCC) with stably PANK2 silencing was obtained by lentiviral-delivered small hairpin RNA and cultured in MEM (Invitrogen) supplemented with 10% fetal bovine serum, 2 mM glutamine, 1% penicillin-streptomycin, 1 mM sodium pyruvate, 1 mM non-essential amino acids, and 1.5 g/l sodium bicarbonate.
A non-silencing shRNA construct (scrambled shRNA) and an empty vector expressing GFP alone were used as negative controls. The GFP tag subcloned into the lentiviral vectors was used to monitor the transfection efficiency.
Three days after transduction medium was removed and replaced with fresh medium containing […] puromycin. […] The level of PANK2 expression in selected clones was assessed by Western Blot analysis.
To quantify CoA, PANK2−/− IMR32 cells were plated on 12-well culture plates (Corning) at a density of 0.2×10^6 cells per well. […] Controls with medium containing 0.1% DMSO without test compounds were also included in each plate. […] Before LC-MS analysis of CoA levels, cells were harvested, counted, and collected in a 15 ml falcon tube and centrifuged at 200×g for 5 min at 4° C. Supernatant was removed and cell pellet was washed in 10 ml of ice-cold PBS. To further confirm that the numbers of cells in each sample were equivalent, an equal fraction of pellet was collected from each sample and subjected to protein determination analysis. After centrifugation and supernatant removal, the cell pellet was rapidly frozen in Liquid Nitrogen and stored at −80° C. until analysis.
Intracellular CoA levels were calculated considering an intracellular volume of 1 million cells=2 μl.
The 1*10^6 cellular pellet was extracted with 120 μl of aqueous 20% TFA.
100 μL samples of supernatant were dried under N2 at 20° C. in the dark.
Samples were re-dissolved in 100 μl of 10 mM NH4^+ AcO^− buffer pH 5.1+IS (Dextrorphan 50 ng/ml), stirred for 2 min, sonicated in ultrasonic bath for 1 min, then stirred again for 1 min, and injected into LC-MS.
LC-MS/MS was performed using an Agilent HPLC (1100 Series, USA). The LC system was interfaced with an API-4000 Q-Trap triple quadrupole mass spectrometer (AB Sciex, Toronto, Canada) equipped with a TurboIonSpray ionization source operating in positive ion mode. Analyst™ software version 1.6 (AB Sciex, Toronto, Canada) was used for data acquisition and processing. CoA was separated using a Luna C18 column (2.0×50 mm; 5 μm particle size), column at 25° C. and flow rate of 0.2 ml/min. Injection volume was 15 μl. The mobile phases consisted of water containing 10 mM ammonium acetate pH 7 (mobile phase A) and MeCN-2-propanol 9:1 (mobile phase B).
Results are expressed as fold increase in CoA levels relative to controls (using LC-MS quantification of free CoA).

Broadly, the fold induction is the signal under treatment as a multiple of the control signal. On to `CC(=O)SCCNC(=O)CCNC(=O)[C@@H]1OP(=O)(OCOC(=O)c2ccc(C(F)(F)F)cn2)OCC1(C)C` (stereo partly drawn) [R1040, (((4R)-4-((3-((2-(acetylthio)ethyl)amino)-3-oxopropyl)carbamoyl)-5,5-dimethyl-2-oxido-1,3,2-dioxaphosphinan-2-yl)oxy)methyl 5-(trifluoromethyl)picolinate], for which the fold induction at 50 µM (Homo sapiens, IMR-32, compound concentration 50 uM) was 4.5.

For `CC(=O)SCCNC(=O)CCNC(=O)[C@@H]1O[P@@](=O)(Oc2ccccc2)OCC1(C)C` [R1041, S-(2-(3-((2S,4R)-5,5-dimethyl-2-oxido-2-phenoxy-1,3,2-dioxaphosphinane-4-carboxamido)propanamido)ethyl) ethanethioate], the “PANK2−/− CoA Fold increase” value is 1.8 fold. On the same count and under the same terms, for `CC(=O)SCCNC(=O)CCNC(=O)[C@@H]1O[P@](=O)(Oc2ccccc2)OCC1(C)C` [R1042, S-(2-(3-((2R,4R)-5,5-dimethyl-2-oxido-2-phenoxy-1,3,2-dioxaphosphinane-4-carboxamido)propanamido)ethyl) ethanethioate] the value was 1.0 fold. On the same count and under the same terms, the value for `CC(=O)SCCNC(=O)CCNC(=O)[C@@H]1OP(=O)(Oc2ccccc2)OCC1(C)C` (stereo partly drawn) [R1043, S-(2-(3-((4R)-5,5-dimethyl-2-oxido-2-phenoxy-1,3,2-dioxaphosphinane-4-carboxamido)propanamido)ethyl) ethanethioate] was 1.1 fold. Turning to `CC(=O)SCCNC(=O)CCNC(=O)[C@@H]1O[P@](=O)(OCOC(=O)c2cc(C(C)(C)C)nn2C)OCC1(C)C` [R1044, (((2R,4R)-4-((3-((2-(acetylthio)ethyl)amino)-3-oxopropyl)carbamoyl)-5,5-dimethyl-2-oxido-1,3,2-dioxaphosphinan-2-yl)oxy)methyl 3-(tert-butyl)-1-methyl-1H-pyrazole-5-carboxylate], under “Homo sapiens, IMR-32”, the fold induction at 1 µM turned out to be 20.3. For the compound `CC(=O)SCCNC(=O)CCNC(=O)[C@@H]1O[P@@](=O)(OCOC(=O)c2cc(C(C)(C)C)nn2C)OCC1(C)C` [R1045, (((2S,4R)-4-((3-((2-(acetylthio)ethyl)amino)-3-oxopropyl)carbamoyl)-5,5-dimethyl-2-oxido-1,3,2-dioxaphosphinan-2-yl)oxy)methyl 3-(tert-butyl)-1-methyl-1H-pyrazole-5-carboxylate], under “Homo sapiens, IMR-32”, the fold induction at 1 µM was found to be 2.3.

For the origin of these results see US20190337971A1, “PANTETHEINE DERIVATIVES FOR THE TREATMENT OF NEUROLOGIC DISORDERS” (Retrophin, Inc., priority 2016, published 2019).
